In patent US9850283B2, “Macrocyclic inhibitors of the PD-1/PD-L1 and CD80(B7-1)/PD-L1 protein/protein interactions” (BRISTOL-MYERS SQUIBB COMPANY, priority 2013, dated 2017):
pIC50: −log10 of the molar value. Like-named read-outs stand apart in the source and are kept apart here. Starred links: 1 amine or outer side, 2 acyl side, 3 side chain; linkers in the order of their positions; H or OH if unused. Positions of bridges follow the written chain, without caps; N, C: chain ends. Non-standard residues stand in square brackets, D forms with d. Residues, ends and D or L forms follow the SMILES beside them. ξ: configuration not given here. X14 = O=C([C@H](Cc1cc(F)c(F)c(Cl)c1)N[*:1])[*:2]; X10 = O=C([C@H](Cc1ccc(F)c(Cl)c1)N[*:1])[*:2]; Pro(trans-4-F) = O=C(O)[C@@H]1C[C@@H](F)CN1; Phe(3-OMe) = COc1cccc(C[C@H](N)C(=O)O)c1; Phe(4-Me) = Cc1ccc(C[C@H](N)C(=O)O)cc1; Bta = N[C@@H](Cc1csc2ccccc12)C(=O)O; Hyp = O=C(O)[C@@H]1C[C@@H](O)CN1; NMeF = CN[C@@H](Cc1ccccc1)C(=O)O; NMeNle = CCCC[C@H](NC)C(=O)O; NMeM = CN[C@@H](CCSC)C(=O)O; NMeA = CN[C@@H](C)C(=O)O; Dab = NCC[C@H](N)C(=O)O; Dap = NC[C@H](N)C(=O)O; ξhCys = NC(CCS)C(=O)O; ξC = NC(CS)C(=O)O; Sar = CNCC(=O)O

Legend:
[1] = target: T1, LK35.2-hPD-L1 cells / PE-labeled PD-1-Ig (Homo sapiens, UniProt Q9NZQ7); experiment: LK35.2-hPD-L1 cell binding high-content screening assay; format: cell-based; conditions: cluster symbol, read-out: CBA IC50 cluster
T1 construct: expressed in transfected cells; host or cells: LK35.2 mouse B cell line
Method in brief: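 Compound effect on PD-1/PD-L1 binding is measured by imaging cell-associated phycoerythrin signal. Human PD-1-Ig (PE on Ig tag, 1 nM final) is applied with compound to a murine B cell line overexpressing human PD-L1 for 1 h at 37 °C in serum-containing RPMI.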

Human PD-L1/PD-1 = target: T2, Human PD-L1/PD-1 (Homo sapiens, UniProt Q9NZQ7); experiment: HTRF PD-1-Ig/PD-L1-His binding assay (human PD-L1); conditions: cluster symbol; read-out: HTRF IC50 cluster
T2 construct: made in house; host or cells: HEK293T
Method in brief: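 Soluble Fc-fused PD-1 and His-tagged PD-L1 (truncated before the transmembrane region) were combined in dPBS with 0.1% (w/v) BSA and 0.05% (v/v) Tween-20. Binding was read by HTRF using europium cryptate anti-Ig antibody (1 nM final) and APC anti-His antibody (20 nM final).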

[2] = cell binding assay, cell line not given
[3] = cell line of CBA not given (LK35.2-hPD-L1 or 293T-hPD-L1)

T1 sequence (Q9NZQ7 19-290): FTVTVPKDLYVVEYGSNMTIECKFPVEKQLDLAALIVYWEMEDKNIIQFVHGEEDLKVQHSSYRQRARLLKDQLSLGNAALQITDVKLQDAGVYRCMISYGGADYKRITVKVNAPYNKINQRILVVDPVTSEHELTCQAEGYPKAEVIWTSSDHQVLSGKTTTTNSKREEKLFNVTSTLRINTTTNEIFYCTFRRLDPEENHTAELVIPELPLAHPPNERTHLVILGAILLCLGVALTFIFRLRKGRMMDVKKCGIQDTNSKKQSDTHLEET
T2 sequence (Q9NZQ7 with tags, fused parts or gaps): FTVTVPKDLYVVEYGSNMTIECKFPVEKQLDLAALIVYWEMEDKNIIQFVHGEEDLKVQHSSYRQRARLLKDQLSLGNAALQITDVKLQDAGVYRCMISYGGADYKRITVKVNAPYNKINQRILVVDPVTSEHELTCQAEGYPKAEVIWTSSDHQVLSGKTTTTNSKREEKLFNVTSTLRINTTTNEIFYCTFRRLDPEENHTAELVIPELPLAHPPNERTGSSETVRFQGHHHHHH

| SMILES | pIC50 [1, 2] | pIC50 (Human PD-L1/PD-1) | pIC50 [1, 3] |
| --- | --- | --- | --- |
| CCCC[C@H]1C(=O)N(C)[C@@H](CCCC)C(=O)N[C@@H](C)C(=O)N[C@H](C(=O)NCC(N)=O)CSCC(=O)N[C@@H](Cc2ccc(O)cc2)C(=O)N(C)[C@@H](C)C(=O)N[C@@H](CC(=O)O)C(=O)N2CCC[C@H]2C(=O)N[C@@H](Cc2c[nH]cn2)C(=O)N[C@@H](CCC(=O)O)C(=O)N2C[C@H](F)C[C@H]2C(=O)N[C@@H](Cc2c[nH]c3ccccc23)C(=O)N[C@@H](CCN)C(=O)N[C@@H](Cc2c[nH]c3ccccc23)C(=O)N1C [Example 13002] ({CH2CO}-Y[NMeA]DPHE[Pro(trans-4-F)]W[Dab]W[NMeNle][NMeNle]ACG-NH2; thioether N-14) | 8.33 to 9.80 | 8.17 to 9.41 | – |
| CCCC[C@H]1C(=O)N[C@@H](C)C(=O)NC(C(=O)NCC(N)=O)CSCC(=O)N[C@@H](Cc2ccc(O)cc2)C(=O)N(C)[C@@H](C)C(=O)N[C@@H](CC(N)=O)C(=O)N2CCC[C@H]2C(=O)N[C@@H](CN)C(=O)N[C@@H](CC(C)C)C(=O)N2C[C@H](O)C[C@H]2C(=O)N[C@@H](Cc2c[nH]c3ccccc23)C(=O)N[C@@H](CO)C(=O)N[C@@H](Cc2csc3ccccc23)C(=O)N(C)[C@@H](CCSC)C(=O)N1C (stereo partly shown) [Example 9096] ({CH2CO}-Y[NMeA]NP[Dap]L[Hyp]WS[Bta][NMeM][NMeNle]A[ξC]G-NH2; thioether N-14) | 8.33 to 9.80 | 8.17 to 9.41 | – |
| CCCC[C@H]1C(=O)N(C)CC(=O)N[C@@H](CC(=O)O)C(=O)N[C@@H](C(C)C)C(=O)N(C)[C@@H](Cc2ccccc2)C(=O)N[C@@H](Cc2ccc(O)cc2)C(=O)N(C)CC(=O)N[C@@H](Cc2cccc(OC)c2)C(=O)N[C@@H](Cc2ccc(O)cc2)C(=O)N[C@@H](CC(C)C)C(=O)N[C@H](C(=O)NCC(N)=O)CSCC(=O)N[C@@H](Cc2ccccc2)C(=O)N(C)[C@@H](Cc2ccccc2)C(=O)N1C [Example 3548] ({CH2CO}-F[NMeF][NMeNle][Sar]DV[NMeF]Y[Sar][Phe(3-OMe)]YLCG-NH2; thioether N-13) | < 7.13 | < 7.52 | – |
| CCCC[C@H]1C(=O)N(C)[C@@H](CCCC)C(=O)N[C@@H]([C@@H](C)O)C(=O)N[C@H](C(=O)NCC(N)=O)CSCC(=O)N[C@@H](Cc2ccccc2)C(=O)N(C)[C@@H](C)C(=O)N[C@@H](CC(N)=O)C(=O)N2CCC[C@H]2C(=O)N[C@@H](Cc2cnc[nH]2)C(=O)N[C@@H](CC(C)C)C(=O)N(C)CC(=O)N[C@@H](Cc2c[nH]c3ccccc23)C(=O)N[C@@H](CO)C(=O)N[C@@H](Cc2c[nH]c3ccccc23)C(=O)N1C [Example 5021] ({CH2CO}-F[NMeA]NPHL[Sar]WSW[NMeNle][NMeNle]TCG-NH2; thioether N-14) | < 7.13 | < 7.52 | – |
| CCCC[C@H]1C(=O)N(C)CC(=O)N[C@@H](CC(=O)O)C(=O)N[C@@H](C(C)C)C(=O)N(C)[C@@H](Cc2ccccc2)C(=O)N[C@@H](Cc2ccc(O)cc2)C(=O)N(C)CC(=O)N[C@@H](Cc2c[nH]c3ccccc23)C(=O)N[C@@H](Cc2ccc(O)cc2)C(=O)N[C@@H](CC(C)C)C(=O)N[C@H](C(=O)NCC(N)=O)CSCC(=O)N[C@@H](Cc2ccc(C)cc2)C(=O)N(C)[C@@H](Cc2ccccc2)C(=O)N1C [Example 3094] ({CH2CO}-[Phe(4-Me)][NMeF][NMeNle][Sar]DV[NMeF]Y[Sar]WYLCG-NH2; thioether N-13) | – | 7.52 to 8.17 | 7.14 to 8.32 |
| CCCC[C@H]1C(=O)N(C)CC(=O)N[C@@H](CC(=O)O)C(=O)N[C@@H](C(C)C)C(=O)N(C)[C@@H](Cc2ccccc2)C(=O)N[C@@H](Cc2ccc(O)cc2)C(=O)N(C)CC(=O)N[C@@H](Cc2c[nH]c3ccccc23)C(=O)N[C@@H](Cc2ccc(O)cc2)C(=O)N[C@@H](CC(C)C)C(=O)N[C@H](C(=O)NCC(N)=O)CSCC(=O)N[C@@H](Cc2cc(F)c(F)c(Cl)c2)C(=O)N(C)[C@@H](Cc2ccccc2)C(=O)N1C [Example 3186] ({CH2CO}-[X14][NMeF][NMeNle][Sar]DV[NMeF]Y[Sar]WYLCG-NH2; thioether N-13) | – | 7.52 to 8.17 | 8.33 to 9.80 |
| CCCC[C@H]1C(=O)N(C)CC(=O)N[C@@H](CC(=O)O)C(=O)N[C@@H](C(C)C)C(=O)N(C)[C@@H](Cc2ccccc2)C(=O)N[C@@H](Cc2ccc(O)cc2)C(=O)N(C)CC(=O)N[C@@H](Cc2c[nH]c3ccccc23)C(=O)N[C@@H](Cc2ccc(O)cc2)C(=O)N[C@@H](CC(C)C)C(=O)N[C@H](C(=O)NCC(N)=O)CSCC(=O)N[C@@H](Cc2ccc(F)c(Cl)c2)C(=O)N(C)[C@@H](Cc2ccccc2)C(=O)N1C [Example 3567] ({CH2CO}-[X10][NMeF][NMeNle][Sar]DV[NMeF]Y[Sar]WYLCG-NH2; thioether N-13) | 8.33 to 9.80 | 8.17 to 9.41 | – |
| CCCC[C@H]1C(=O)N(C)[C@@H](CCCC)C(=O)N[C@@H](CN)C(=O)N[C@H](C(=O)NCC(N)=O)CSCC(=O)N[C@@H](Cc2ccccc2)C(=O)N(C)[C@@H](C)C(=O)N[C@@H](CC(N)=O)C(=O)N2CCC[C@H]2C(=O)N[C@@H](Cc2cnc[nH]2)C(=O)N[C@@H](CC(C)C)C(=O)N(C)CC(=O)N[C@@H](Cc2c[nH]c3ccccc23)C(=O)N[C@@H](CO)C(=O)N[C@@H](Cc2c[nH]c3ccccc23)C(=O)N1C [Example 5007] ({CH2CO}-F[NMeA]NPHL[Sar]WSW[NMeNle][NMeNle][Dap]CG-NH2; thioether N-14) | 7.14 to 8.32 | 7.52 to 8.17 | – |
| CCCC[C@H]1C(=O)N(C)CC(=O)N[C@@H](CCCNC(=N)N)C(=O)N[C@H](C(=O)NCC(N)=O)CSCC(=O)N[C@@H](Cc2ccccc2)C(=O)N(C)[C@@H](C)C(=O)N[C@@H](CC(N)=O)C(=O)N2CCC[C@H]2C(=O)N[C@@H](Cc2cnc[nH]2)C(=O)N[C@@H](CC(C)C)C(=O)N(C)CC(=O)N[C@@H](Cc2c[nH]c3ccccc23)C(=O)N[C@@H](CO)C(=O)N[C@@H](Cc2c[nH]c3ccccc23)C(=O)N1C [Example 5027] (HELM PEPTIDE1{[O=C(C[*:3])[*:2]].F.[meA].N.P.H.L.[Sar].W.S.W.[CCCC[C@@H](C(=O)[*:2])N(C)[*:1]].[Sar].R.C.G.[am]}$PEPTIDE1,PEPTIDE1,1:R3-15:R3$$$V2.0) | < 7.13 | < 7.52 | – |
| CCCC[C@H]1C(=O)N(C)[C@@H](CCCC)C(=O)N[C@@H](CCC(=O)O)C(=O)N[C@H](C(=O)NCC(N)=O)CSCC(=O)N[C@@H](Cc2ccc(O)cc2)C(=O)N(C)[C@@H](C)C(=O)N[C@@H](CCN)C(=O)N2CCC[C@H]2C(=O)N[C@@H](Cc2c[nH]cn2)C(=O)N[C@@H](CCC(=O)O)C(=O)N2C[C@H](O)C[C@H]2C(=O)N[C@@H](Cc2c[nH]c3ccccc23)C(=O)N[C@@H](CO)C(=O)N[C@@H](Cc2c[nH]c3ccccc23)C(=O)N1C [Example 5111] ({CH2CO}-Y[NMeA][Dab]PHE[Hyp]WSW[NMeNle][NMeNle]ECG-NH2; thioether N-14) | 7.14 to 8.32 | 7.52 to 8.17 | – |

Now from value to compound:

| pIC50 [1, 2] | pIC50 (Human PD-L1/PD-1) | pIC50 [1, 3] | SMILES |
| --- | --- | --- | --- |
| < 7.13 | 7.52 to 8.17 | – | CCCC[C@H]1C(=O)N(C)[C@@H](CCCC)C(=O)N[C@@H](CCCNC(=N)N)C(=O)NC(C(=O)NCC(N)=O)CCSCC(=O)N[C@@H](Cc2ccc(O)cc2)C(=O)N(C)[C@@H](C)C(=O)N[C@@H](CC(N)=O)C(=O)N2CCC[C@H]2C(=O)N[C@@H](Cc2cnc[nH]2)C(=O)N[C@@H](CC(C)C)C(=O)N2CCC[C@H]2C(=O)N[C@@H](Cc2c[nH]c3ccccc23)C(=O)N[C@@H](CO)C(=O)N[C@@H](Cc2c[nH]c3ccccc23)C(=O)N1C (stereo partly shown) [Example 9019] ({CH2CO}-Y[NMeA]NPHLPWSW[NMeNle][NMeNle]R[ξhCys]G-NH2; thioether N-14) |
| 7.14 to 8.32 | 7.52 to 8.17 | – | CCCC[C@H]1C(=O)N2CCC[C@@H]2C(=O)N[C@@H](CCCNC(=N)N)C(=O)N[C@H](C(=O)NCC(N)=O)CSCC(=O)N[C@@H](Cc2ccc(O)cc2)C(=O)N(C)[C@@H](C)C(=O)N[C@@H](CC(N)=O)C(=O)N2CCC[C@H]2C(=O)N[C@@H](Cc2cnc[nH]2)C(=O)N[C@@H](CC(C)C)C(=O)N2CCC[C@H]2C(=O)N[C@@H](Cc2c[nH]c3ccccc23)C(=O)N[C@@H](CO)C(=O)N[C@@H](Cc2csc3ccccc23)C(=O)N1C [Example 5004] ({CH2CO}-Y[NMeA]NPHLPWS[Bta][NMeNle][dP]RCG-NH2; thioether N-14) |
| 7.14 to 8.32 | 8.17 to 9.41 | – | CCCC[C@H]1C(=O)N(C)[C@@H](CCCC)C(=O)N[C@@H](CCN)C(=O)N[C@H](C(=O)NCC(N)=O)CSCC(=O)N[C@@H](Cc2ccccc2)C(=O)N(C)[C@@H](C)C(=O)N[C@@H](CC(N)=O)C(=O)N2CCC[C@H]2C(=O)N[C@@H](Cc2cnc[nH]2)C(=O)N[C@@H](CC(C)C)C(=O)N(C)CC(=O)N[C@@H](Cc2c[nH]c3ccccc23)C(=O)N[C@@H](CO)C(=O)N[C@@H](Cc2c[nH]c3ccccc23)C(=O)N1C [Example 5006] ({CH2CO}-F[NMeA]NPHL[Sar]WSW[NMeNle][NMeNle][Dab]CG-NH2; thioether N-14) |
| < 7.13 | < 7.52 | – | CCCC[C@H]1C(=O)N(C)[C@@H](CCCC)C(=O)N[C@@H](CCCNC(=N)N)C(=O)N[C@H](C(=O)NCC(N)=O)CSCC(=O)N[C@@H](Cc2ccccc2)C(=O)N(C)[C@@H](C)C(=O)N[C@@H](CC(N)=O)C(=O)N2CCC[C@H]2C(=O)N[C@@H](Cc2cnc[nH]2)C(=O)N[C@@H](CC(C)C)C(=O)N(C)CC(=O)N[C@@H](Cc2c[nH]c3ccccc23)C(=O)N[C@@H](CN)C(=O)N[C@@H](Cc2c[nH]c3ccccc23)C(=O)N1C [Example 5002] ({CH2CO}-F[NMeA]NPHL[Sar]W[Dap]W[NMeNle][NMeNle]RCG-NH2; thioether N-14) |
